Paper PMC5458078, “Global mapping of CARM1 substrates defines enzyme specificity and substrate recognition” (Nature Communications, 2017)
Like-named read-outs stand apart in the source and are kept apart here.

What was measured:
histone substrate = conditions: cited from earlier work
Text: page 18: We agree with the reviewer’s assertion that proteomic experiments generally suffer from the abundance bias. However, we, and others, argue that analyses of post-translational modifications are less affected by this issue, as the immunoprecipitation and other methods of PTM enrichment rely on the abundance of the PTM itself, not the protein that bears it, i.e., a strongly modified low abundance protein is as likely to be pulled down as a lowly modified high abundance protein.

MCF7 CARM1 KO cells = experiment: Quantitative MS of ADMA-containing peptides in MCF7 CARM1 KO cells expressing CARM1 28-608 or CARM1 140-608, and in CARM1 KO; format: cell-based, human
MCF7 cells = experiment: Quantitative nanoLC-MS/MS (TMT) of ADMA-containing peptides, CARM1 KO vs parental; format: cell-based, human; set-up: Fold change KO/WT: scale not given here
[1] = CARM1 140-608 versus WT, difference of mean log2 values
[2] = CARM1 KO versus WT, difference of mean log2 values
[3] = CARM1 KO vs wild type MCF7 cells, 3 biological replicates each
[4] = CARM1 140-608 versus WT, mean of three replicates (log2)
[5] = KO versus WT, mean of three replicates (log2)
[6] = MCF7, CARM1 KO (KO1-KO3) vs wild type (WT1-WT3)
[7] = difference of log2 means, CARM1 140-608 vs WT
[8] = difference of log2 means, KO vs WT
[9] = ADMA-containing peptide, CARM1 knockout (KO) vs wild type (WT) MCF7 cells, 6-plex TMT experiment #1, three biological replicates each, sheet "MCF7"
[10] = ratio on log2 scale, mean of 3 replicates
[11] = MCF7, CARM1 KO vs WT, three biological replicates each
[12] = CARM1 140-608 vs WT, mean of 3 replicates, log2
[13] = KO vs WT, mean of 3 replicates, log2
[14] = mean, CARM1 140-608 versus WT (log2 scale)
[15] = mean, CARM1 KO versus WT (log2 scale)
[16] = MCF7 CARM1 knockout vs wild type, 3 biological replicates each, values are on log2 scale
[17] = MCF7, CARM1 knockout vs wild type, n = 3 each
[18] = ADMA-containing peptide, MCF7, CARM1 knockout (KO1-3) vs wild type (WT1-3), TMT 6-plex experiment #1
[19] = log2 scale ratio, mean of n = 3

PRMT1: protein arginine methyltransferase 1
Km (histone substrate; PRMT1, histone substrate, ref Pak et al., Biochem 2011): 4.2 µM

LLPAPrAYLVPENFR
CARM1 140-608/WT (MCF7 CARM1 KO cells; [1]): -1.125 | KO/WT (MCF7 CARM1 KO cells; [2]): -0.8691 | Fold change KO/WT (MCF7 cells; [3]): -0.8691

ErDQLYYECYSDVSVHEEMIADR
CARM1 140-608/WT (MCF7 CARM1 KO cells; [4]): -0.3168 | KO/WT (MCF7 CARM1 KO cells; [5]): -0.6326 | Fold change KO/WT (MCF7 cells; [6]): -0.1341

TSVYrQQQPAVPQGQrLrQQLQAK
CARM1 140-608/WT (MCF7 CARM1 KO cells; [7]): -3.863 | KO/WT (MCF7 CARM1 KO cells; [8]): -4.228 | Fold change KO/WT (MCF7 cells; [9]): -4.048

AGGLLGTGSGLNLrMAGPQGLDLAPILR
CARM1 140-608/WT (MCF7 CARM1 KO cells; [10]): -0.05646 | KO/WT (MCF7 CARM1 KO cells; [10]): -2.802 | Fold change KO/WT (MCF7 cells; [11]): -3.029

QLrYQQPGPGSSPSSFLLK
CARM1 140-608/WT (MCF7 CARM1 KO cells; [12]): -1.181 | KO/WT (MCF7 CARM1 KO cells; [13]): -5.114 | Fold change KO/WT (MCF7 cells; [11]): -4.8874

SVGQGYSVGQSMrLGLGGNAPVSIPQQSQSVK
CARM1 140-608/WT (MCF7 CARM1 KO cells; [12]): -2.098 | KO/WT (MCF7 CARM1 KO cells; [13]): -2.576 | Fold change KO/WT (MCF7 cells; [11]): -2.576

MGAGMGFGLErMAAPIDR
CARM1 140-608/WT (MCF7 CARM1 KO cells; [14]): -2.085 | KO/WT (MCF7 CARM1 KO cells; [15]): -3.039 | Fold change KO/WT (MCF7 cells; [16]): -3.039

GrGALLQDICK
CARM1 140-608/WT (MCF7 CARM1 KO cells; [1]): 0.1138 | KO/WT (MCF7 CARM1 KO cells; [2]): -0.96 | Fold change KO/WT (MCF7 cells; [3]): 0.3016

CrQPAPPTSQPPrAQPFAQPPGPWPLSSPGPrLVFNR
CARM1 140-608/WT (MCF7 CARM1 KO cells; [10]): -1.684 | KO/WT (MCF7 CARM1 KO cells; [10]): -3.117 | Fold change KO/WT (MCF7 cells; [17]): -3.117

NPHTLGLSrYHPYGK
CARM1 140-608/WT (MCF7 CARM1 KO cells; [1]): -0.4138 | KO/WT (MCF7 CARM1 KO cells; [2]): -0.4466 | Fold change KO/WT (MCF7 cells; [3]): -0.4466

YSAFQLAPFQDHGLPAVSVDSPVrYK
CARM1 140-608/WT (MCF7 CARM1 KO cells; [1]): -1.433 | KO/WT (MCF7 CARM1 KO cells; [2]): -2.156 | Fold change KO/WT (MCF7 cells; [3]): -2.156

SPFLGSArPrLR
CARM1 140-608/WT (MCF7 CARM1 KO cells): -0.6148 | KO/WT (MCF7 CARM1 KO cells): -3.721 | Fold change KO/WT (MCF7 cells; [18]): -3.721

EGAEGVNGGEESVNLNDADEGFSSGASLSSQPIGTKPSSSSQrGSLR
CARM1 140-608/WT (MCF7 CARM1 KO cells; [10]): -0.2709 | KO/WT (MCF7 CARM1 KO cells; [10]): -0.04765 | Fold change KO/WT (MCF7 cells; [17]): -0.04765

RAPAGGSLGrALMR
CARM1 140-608/WT (MCF7 CARM1 KO cells; [7]): 0.2074 | KO/WT (MCF7 CARM1 KO cells; [8]): 0.5402 | Fold change KO/WT (MCF7 cells; [9]): 0.1845

MPTMPMLDIrPGLIPQAPGPrFPLIQPGIPPQR
CARM1 140-608/WT (MCF7 CARM1 KO cells; CARM1 140-608 vs WT, mean of 3 replicates (log2 scale)): 0.8902 | KO/WT (MCF7 CARM1 KO cells; KO vs WT, mean of 3 replicates (log2 scale)): -2.649 | Fold change KO/WT (MCF7 cells; [6]): -2.649

GLGPGGTPFPGQGPPQrPrFYPVSEDPHR
CARM1 140-608/WT (MCF7 CARM1 KO cells; [7]): -1.244 | KO/WT (MCF7 CARM1 KO cells; [8]): -1.165 | Fold change KO/WT (MCF7 cells; [16]): -1.165

TPGQPGPQrFDGPPGQQVQPrFDGVPQrFDGPQHQQASR
CARM1 140-608/WT (MCF7 CARM1 KO cells; [4]): -1.05 | KO/WT (MCF7 CARM1 KO cells; [5]): -1.824 | Fold change KO/WT (MCF7 cells; [9]): -1.547

GQLFrLPSALNR
CARM1 140-608/WT (MCF7 CARM1 KO cells; [10]): -1.812 | KO/WT (MCF7 CARM1 KO cells; [10]): -4.117 | Fold change KO/WT (MCF7 cells; [17]): -4.127

KYPLPPPSGrYNWN
CARM1 140-608/WT (MCF7 CARM1 KO cells; [1]): -1.833 | KO/WT (MCF7 CARM1 KO cells; [2]): -2.65 | Fold change KO/WT (MCF7 cells; [3]): -1.439

LFIGGLSFETTDDSLr
CARM1 140-608/WT (MCF7 CARM1 KO cells; [14]): -0.1871 | KO/WT (MCF7 CARM1 KO cells; [15]): 0.1666 | Fold change KO/WT (MCF7 cells; [17]): -0.1032

KPLGTAPHCPrLPLR
CARM1 140-608/WT (MCF7 CARM1 KO cells; [14]): -2.281 | KO/WT (MCF7 CARM1 KO cells; [15]): -3.016 | Fold change KO/WT (MCF7 cells; [17]): -3.016

FrPNPLNNPR
CARM1 140-608/WT (MCF7 CARM1 KO cells; [19]): 0.04278 | KO/WT (MCF7 CARM1 KO cells; [19]): 0.4697 | Fold change KO/WT (MCF7 cells; [18]): 0.07251

QIrFSQGQQLVTK
CARM1 140-608/WT (MCF7 CARM1 KO cells; [10]): -1.837 | KO/WT (MCF7 CARM1 KO cells; [10]): -2.537 | Fold change KO/WT (MCF7 cells; [11]): -2.537

LQGLQGSGGrGGGLR
CARM1 140-608/WT (MCF7 CARM1 KO cells; [14]): 0.05748 | KO/WT (MCF7 CARM1 KO cells; [15]): -0.4598 | Fold change KO/WT (MCF7 cells; [16]): -0.266

TNRPGISTTDrGFPrArYR
CARM1 140-608/WT (MCF7 CARM1 KO cells; [12]): -0.4847 | KO/WT (MCF7 CARM1 KO cells; [13]): -0.1094 | Fold change KO/WT (MCF7 cells; [11]): -0.1094

DQPGTSAVPNLASVGTrLPPPLPQNLLYTVSER
CARM1 140-608/WT (MCF7 CARM1 KO cells; [4]): -1.1192 | KO/WT (MCF7 CARM1 KO cells; [5]): -4.635 | Fold change KO/WT (MCF7 cells; [6]): -4.596

QLPNAGPGAPPALGFSrFPAGAR
CARM1 140-608/WT (MCF7 CARM1 KO cells; [12]): -1.8557 | KO/WT (MCF7 CARM1 KO cells; [13]): -2.458 | Fold change KO/WT (MCF7 cells; [11]): -2.458

B1: CARM1: coactivator-associated arginine methyltransferase 1 (protein)
chain: MAAAAAAVGPGAGGAGSAVPGGAGPCATVSVFPGARLLTIGDANGEIQRHAEQQALRLEVRAGPDSAGIALYSHEDVCVFKCSVSRETECSRVGKQSFIITLGCNSVLIQFATPNDFCSFYNILKTCRGHTLERSVFSERTEESSAVQYFQFYGYLSQQQNMMQDYVRTGTYQRAILQNHTDFKDKIVLDVGCGSGILSFFAAQAGARKIYAVEASTMAQHAEVLVKSNNLTDRIVVIPGKVEEVSLPEQVDIIISEPMGYMLFNERMLESYLHAKKYLKPSGNMFPTIGDVHLAPFTDEQLYMEQFTKANFWYQPSFHGVDLSALRGAAVDEYFRQPVVDTFDIRILMAKSVKYTVNFLEAKEGDLHRIEIPFKFHMLHSGLVHGLAFWFDVAFIGSIMTVWLSTAPTEPLTHWYQVRCLFQSPLFAKAGDTLSGTCLLIANKRQSYDISIVAQVDQTGSKSSNLLDLKNPFFRYTGTTPSPPPGSHYTSPSENMWNTGSTYNLSSGMAVAGMPTAYDLSSVIASGSSVGHNNLIPLANTGIVNHTHSRMGSIMSTGIVQGSSGAQGSGGGSTSAHYAVNSQFTMGGPAISMASPMSIPTNTMHYGS
modifications: left off: FLAG, end not stated, kept
Km (histone substrate; CARM1, natural histone substrate, ref Jacques et al., 2016): 0.15 µM
